Measured values taken from the supplement of paper PMC10307832.

What was measured:
Experiment in all cases: relative viability (nuclei count vs DMSO), 5 days (fraction); higher = more cells survive
[1] = compound: CC1=C(C(=NN1)C)CC2=C(C3=C(S2)N(C(=O)N(C3=O)C)CC(C)C)C(=O)N4C[C@@H](CO4)O + COc1cc2c(Oc3ccc(NC(=O)C4(C(=O)Nc5ccc(F)cc5)CC4)cc3F)ccnc2cc1OCCCN1CCOCC1 [Foretinib] (partner 0.25 µM)
In short: (§1)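 Lung cancer cell lines, seeded in 1536-well plates, were treated the following day by pin tool with a single drug or with five library-drug doses (not always all listed) in √10 steps on top of a fixed anchor-drug dose. Cells were fixed and nuclei stained in one step after 5 days, and nuclei were counted. Relative viability is the nuclei count for treated wells divided by that for vehicle wells, reported as medians of duplicate plates.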

IDH-C35 + Lapatinib = compound: Cc1ccccc1C(C(=O)NC1CCCCC1)N(C(=O)Cn1ccnc1C)c1cccc(F)c1 [IDH-C35] + CS(=O)(=O)CCNCc1ccc(-c2ccc3ncnc(Nc4ccc(OCc5cccc(F)c5)c(Cl)c4)c3c2)o1 [Lapatinib] (partner 2 µM)
In short: as §1

IDH-C35 + Pemetrexed = compound: Cc1ccccc1C(C(=O)NC1CCCCC1)N(C(=O)Cn1ccnc1C)c1cccc(F)c1 [IDH-C35] + Nc1nc2[nH]cc(CCc3ccc(C(=O)N[C@@H](CCC(=O)O)C(=O)O)cc3)c2c(=O)[nH]1 [Pemetrexed] (partner 0.2 µM)
In short: as §1

IDH-C35 + OSI-027 = compound: Cc1ccccc1C(C(=O)NC1CCCCC1)N(C(=O)Cn1ccnc1C)c1cccc(F)c1 [IDH-C35] + COc1cccc2cc(-c3nc([C@H]4CC[C@H](C(=O)O)CC4)n4ncnc(N)c34)[nH]c12 [OSI-027] (partner 0.5 µM)
In short: as §1

Cell Line | relative viability ([1]; first compound 0.0025 µM) | relative viability ([1]; first compound 0.007906 µM) | relative viability ([1]; first compound 0.025 µM) | relative viability ([1]; first compound 0.07906 µM) | relative viability ([1]; first compound 0.25 µM) | relative viability (IDH-C35 + Lapatinib; first compound 0.08 µM) | relative viability (IDH-C35 + Lapatinib; first compound 0.253 µM) | relative viability (IDH-C35 + Lapatinib; first compound 0.8 µM) | relative viability (IDH-C35 + Lapatinib; first compound 2.53 µM) | relative viability (IDH-C35 + Lapatinib; first compound 8 µM) | relative viability (IDH-C35 + Pemetrexed; first compound 0.08 µM) | relative viability (IDH-C35 + Pemetrexed; first compound 0.253 µM) | relative viability (IDH-C35 + Pemetrexed; first compound 0.8 µM) | relative viability (IDH-C35 + Pemetrexed; first compound 2.53 µM) | relative viability (IDH-C35 + Pemetrexed; first compound 8 µM) | relative viability (IDH-C35 + OSI-027; first compound 0.08 µM) | relative viability (IDH-C35 + OSI-027; first compound 0.253 µM) | relative viability (IDH-C35 + OSI-027; first compound 0.8 µM) | relative viability (IDH-C35 + OSI-027; first compound 2.53 µM) | relative viability (IDH-C35 + OSI-027; first compound 8 µM)
NCI-H1651 | 0.708 | 0.832 | 0.735 | 0.821 | 0.815 | 0.849 | 0.828 | 0.954 | 1 | 0.76 | 0.53 | 0.615 | 0.571 | 0.607 | 0.641 | 0.7 | 0.686 | 0.746 | 0.644 | 0.703
NCI-H1666 | 0.93 | 0.995 | 0.897 | 0.94 | 1.03 | 0.599 | 0.523 | 0.481 | 0.736 | 0.605 | 0.881 | 0.825 | 0.822 | 0.874 | 0.718 | 0.828 | 0.81 | 0.865 | 0.845 | 0.841
NCI-H1734 | 0.811 | 0.976 | 0.896 | 0.9 | 0.916 | 1.05 | 1.18 | 1.06 | 0.94 | 1.02 | 0.432 | 0.423 | 0.443 | 0.413 | 0.409 | 0.643 | 0.621 | 0.564 | 0.6 | 0.597
NCI-H1755 | 0.97 | 0.996 | 0.873 | 0.911 | 0.897 | 1.08 | 1.03 | 0.992 | 1.03 | 1.02 | 0.455 | 0.748 | 0.458 | 0.411 | 0.473 | 0.754 | 0.64 | 0.707 | 0.68 | 0.706
NCI-H1793 | 0.67 | 0.784 | 0.732 | 0.665 | 0.605 | 0.652 | 0.648 | 0.833 | 0.674 | 0.652 | 0.759 | 0.783 | 0.804 | 1.04 | 0.854 | 0.225 | 0.256 | 0.279 | – | 0.262
NCI-H1915 | 1.18 | 1.12 | 1.05 | 1.01 | 1.11 | 0.962 | 0.996 | 0.974 | 0.934 | 0.976 | 0.555 | 0.475 | 0.508 | 0.54 | 0.461 | 0.645 | 0.602 | 0.62 | 0.597 | 0.56
NCI-H1944 | 0.985 | 1.02 | 0.898 | 1.02 | 0.889 | 0.858 | 0.824 | 0.81 | 0.774 | 0.832 | 0.591 | 0.67 | 0.562 | 0.612 | 0.568 | 0.418 | 0.415 | 0.413 | 0.442 | 0.392
NCI-H1975 | 0.946 | 1.06 | 1 | 0.949 | 0.984 | 0.833 | 0.86 | 0.85 | 0.974 | 0.928 | 0.284 | 0.284 | 0.281 | 0.288 | 0.32 | 0.64 | 0.71 | 0.778 | 0.741 | 0.763
NCI-H1993 | 0.767 | 0.719 | 0.827 | 0.711 | 0.749 | 0.858 | 0.763 | 0.79 | 0.795 | 0.92 | 0.527 | 0.628 | 0.677 | 0.598 | 0.637 | 0.522 | 0.532 | 0.57 | 0.505 | 0.555
NCI-H2009 | 1.16 | 1.27 | 1.17 | 1.35 | 1.15 | 1 | 0.928 | 0.908 | 0.639 | 0.729 | 1.02 | 0.968 | 0.936 | 1.01 | 0.936 | 0.654 | 0.643 | 0.685 | 0.668 | 0.569
NCI-H2023 | 0.871 | 0.809 | 0.959 | 0.898 | 1.03 | 0.938 | 0.921 | 0.83 | 0.263 | 0.808 | 0.262 | 0.246 | 0.245 | 0.241 | 0.2 | 0.418 | 0.417 | 0.426 | 0.411 | 0.307
NCI-H2085 | 0.965 | 0.803 | 0.957 | 0.796 | 0.827 | 0.834 | 0.741 | 0.764 | 0.848 | 0.728 | 0.943 | 0.889 | 0.889 | 0.893 | 0.888 | 0.772 | 0.929 | 0.722 | 0.741 | 0.638
NCI-H2087 | 1.05 | 1.05 | 1.03 | 0.811 | 1.07 | 1.04 | 1.06 | 0.867 | 1.07 | 0.834 | 0.732 | 0.592 | 0.678 | 0.647 | 0.697 | 0.59 | 0.518 | 0.537 | – | 0.532
NCI-H2126 | 1.28 | 0.958 | 1.03 | 1.29 | 0.947 | 0.77 | 0.77 | 0.705 | 0.777 | 0.739 | 0.68 | 0.703 | 0.696 | 0.597 | 0.668 | 0.767 | 0.731 | 0.68 | 0.651 | 0.677
NCI-H2170 | 0.989 | 1.09 | 0.984 | 0.972 | 1.08 | 0.254 | 0.259 | 0.28 | 0.274 | 0.272 | 0.277 | 0.341 | 0.265 | 0.267 | 0.262 | 0.669 | 0.661 | 0.739 | 0.71 | 0.676
NCI-H2228 | 0.828 | 1.04 | 0.734 | 0.83 | 1.08 | 1.02 | 0.984 | 0.925 | 0.985 | 0.931 | 0.307 | 0.336 | 0.332 | 0.328 | 0.3 | 0.729 | 0.687 | 0.55 | 0.586 | 0.535
